The supplement of paper PMC10331698
± gives the standard deviation of the averaged measurements.

Legend:
Experiment in all cases: level (log10 ratio to DMSO vehicle control); higher = higher biomarker level / cell amount than vehicle control
[1] = compound: C=CC(=O)OCC(F)(F)C(F)(F)C(F)(F)C(F)(F)C(F)(F)C(F)(F)C(F)(F)C(F)F [1H,1H,9H-Perfluorononyl acrylate]; settings: in DMSO
Procedure: (§1)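 BioMAP Diversity Plus panel of 12 human primary cell co-culture systems (3C, 4H, LPS, SAg, BT, BF4T, BE3C, CASM3C, HDF3CGF, KF3CT, MyoF, Mphg). Compounds were added 1 h before stimulation and left for 24 h (MyoF 48 h; BT 72 h for soluble read-outs or 6 d for IgG). Biomarkers were read by ELISA, cytotoxicity by SRB, PBMC viability and proliferation by Alamar Blue. Each well value was divided by the mean of 8 DMSO control wells on the same plate and log10 transformed; duplicate blinded samples were tested at 4 concentrations.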

Tetrafluorosuccinic acid = compound: O=C(O)C(F)(F)C(F)(F)C(=O)O [Tetrafluorosuccinic acid]; settings: in DMSO
Procedure: as §1

[2] = compound: O=C(O)C(F)(F)C(F)(F)C(F)(F)C(F)(F)C(F)(F)C(F)(F)C(F)(F)F [Ammonium perfluorooctanoate]; settings: in DMSO
Procedure: as §1

[3] = compound: O=S(=O)(O)CCC(F)(F)C(F)(F)C(F)(F)C(F)(F)F [4:2 Fluorotelomer sulfonic acid]; settings: in DMSO
Procedure: as §1

Perfluoropinacol = compound: OC(C(F)(F)F)(C(F)(F)F)C(O)(C(F)(F)F)C(F)(F)F [Perfluoropinacol]; settings: in DMSO
Procedure: as §1

[4] = compound: OCC(F)(F)C(F)(F)C(F)(F)C(F)(F)C(F)(F)C(F)(F)C(F)(F)C(F)(F)CO [1H,1H,10H,10H-Perfluorodecane-1,10-diol]; settings: in DMSO
Procedure: as §1

[5] = compound: OCCC(F)(F)C(F)(F)C(F)(F)C(F)(F)C(F)(F)C(F)(F)C(F)(F)C(F)(F)F [8:2 Fluorotelomer alcohol]; settings: 6700 nM; in DMSO
Procedure: as §1

Row | Test System | level (log10) ([1]; 6700 nM) | level (log10) ([1]; 20000 nM) | level (log10) ([1]; 60000 nM) | level (log10) (Tetrafluorosuccinic acid; 6700 nM) | level (log10) (Tetrafluorosuccinic acid; 20000 nM) | level (log10) (Tetrafluorosuccinic acid; 60000 nM) | level (log10) ([2]; 6700 nM) | level (log10) ([2]; 20000 nM) | level (log10) ([2]; 60000 nM) | level (log10) ([3]; 6700 nM) | level (log10) ([3]; 20000 nM) | level (log10) ([3]; 60000 nM) | level (log10) (Perfluoropinacol; 6700 nM) | level (log10) (Perfluoropinacol; 20000 nM) | level (log10) ([4]; 6700 nM) | level (log10) ([4]; 20000 nM) | level (log10) ([4]; 60000 nM) | level (log10) [5]
1 | BE3C:IL-1alpha | -0.01 ± 0.0085 | -0.021 ± 0.018 | -0.03 ± 0.021 | 0.019 ± 0.013 | 0.009 ± 0.02 | 0.0385 ± 0.012 | -0.008 ± 0.024 | -0.019 ± 0.021 | -0.028 ± 0.011 | -0.011 ± 0.0014 | -0.011 ± 0.013 | 0.0045 ± 0.0092 | -0.041 ± 0.021 | -0.093 ± 0.0071 | -0.0035 ± 0.015 | -0.022 ± 0.0099 | -0.026 | -0.014 ± 0.0014
2 | 3C:Proliferation | -0.092 ± 0.031 | -0.186 ± 0.021 | -0.415 ± 0.013 | -0.0155 ± 0.028 | -0.01 ± 0.0014 | -0.0265 ± 0.021 | -0.001 ± 0.034 | 0.015 ± 0.0042 | -0.0635 ± 0.08 | 0.0045 ± 0.083 | 0.0155 ± 0.013 | 0.003 ± 0.0085 | -0.151 ± 0.0028 | -0.441 ± 0.086 | -0.047 ± 0.068 | -0.0735 ± 0.06 | -0.403 | -0.0465 ± 0.005
3 | BF4T:CD106/VCAM-1 | -0.007 ± 0.0071 | -0.0165 ± 0.04 | 0.0185 ± 0.066 | 0.0205 ± 0.0092 | -0.0155 ± 0.029 | -0.033 ± 0.021 | -0.0315 ± 0.021 | -0.0315 ± 0.0064 | -0.032 ± 0.017 | -0.0045 ± 0.0078 | -0.018 ± 0.0028 | 0.0085 ± 0.046 | -0.0455 ± 0.0021 | -0.096 | -0.012 ± 0.023 | -0.139 ± 0.037 | -0.145 | -0.0905 ± 0.023
4 | SAg:Proliferation | -0.024 ± 0.0014 | -0.166 ± 0.029 | -0.58 ± 0.14 | 0.017 ± 0.04 | -0.0205 ± 0.032 | 0.049 ± 0.027 | 0.002 ± 0.0085 | 0.0175 ± 0.029 | 0.044 ± 0.044 | -0.0615 ± 0.015 | 0.009 ± 0.054 | -0.017 ± 0.041 | 0.0035 ± 0.093 | -0.163 ± 0.021 | -0.0135 ± 0.025 | -0.058 ± 0.013 | -0.048 | -0.064 ± 0.028
5 | BF4T:MMP-1 | -0.0185 ± 0.0021 | -0.0005 ± 0.005 | 0.001 ± 0.0057 | 0.016 ± 0.02 | 0.008 ± 0.013 | 0.0295 ± 0.0035 | -0.0025 ± 0.016 | -0.004 ± 0.014 | 0.0105 ± 0.012 | -0.002 ± 0.017 | -0.0115 ± 0.005 | 0.0055 ± 0.0092 | -0.0245 ± 0.00071 | -0.0165 ± 0.0035 | -0.003 ± 0.011 | -0.0505 ± 0.011 | -0.007 | 0.0035 ± 0.016
6 | LPS:IL-1alpha | 0.04 ± 0.028 | 0.0435 ± 0.03 | 0.0325 ± 0.053 | -0.0215 ± 0.021 | -0.0175 ± 0.0092 | -0.0015 ± 0.013 | 0.019 ± 0.0042 | 0.0045 ± 0.00071 | -0.034 ± 0.024 | -0.007 ± 0.035 | -0.001 ± 0.03 | 0.0035 ± 0.018 | 0.0305 ± 0.011 | 0.041 ± 0.0014 | 0.0225 ± 0.033 | 0.027 ± 0.016 | 0.066 | -0.015 ± 0.013
7 | BT:sIL-17F | -0.175 ± 0.05 | -0.483 ± 0.2 | -0.84 ± 0.25 | 0.0105 ± 0.026 | 0.0175 ± 0.043 | -0.0215 ± 0.033 | -0.0405 ± 0.13 | -0.0495 ± 0.094 | -0.0615 ± 0.14 | -0.0025 ± 0.0035 | -0.009 ± 0.13 | 0.077 ± 0.021 | -0.063 ± 0.028 | -0.23 ± 0.033 | -0.123 ± 0.064 | -0.054 ± 0.1 | -0.619 | 0.013 ± 0.065
8 | LPS:CCL2/MCP-1 | -0.023 ± 0.021 | -0.007 ± 0.045 | -0.055 ± 0.0085 | -0.02 ± 0.0085 | -0.027 ± 0.014 | -0.0095 ± 0.043 | -0.0095 ± 0.0035 | -0.001 ± 0.031 | 0.0105 ± 0.0092 | 0.0065 ± 0.028 | 0.005 ± 0.0042 | 0.037 ± 0.017 | 0.0205 ± 0.00071 | -0.103 ± 0.0078 | -0.0035 ± 0.00071 | -0.0135 ± 0.015 | 0.01 | 0.0055 ± 0.011
9 | BF4T:CCL26/Eotaxin-3 | -0.0095 ± 0.061 | -0.066 ± 0.078 | -0.084 ± 0.018 | 0.018 ± 0.04 | -0.02 ± 0.04 | -0.0075 ± 0.015 | 0.004 ± 0.02 | -0.044 ± 0.025 | -0.086 | -0.002 ± 0.052 | -0.0065 ± 0.029 | 0.056 ± 0.047 | -0.108 ± 0.0042 | -0.217 ± 0.0057 | -0.0415 ± 0.042 | -0.134 ± 0.0021 | -0.255 | -0.106 ± 0.012
10 | BF4T:CXCL8/IL-8 | -0.0025 ± 0.061 | 0.0315 ± 0.053 | 0.0175 ± 0.012 | 0.0235 ± 0.0064 | 0.016 ± 0.038 | 0.029 ± 0.023 | 0.0135 ± 0.047 | 0.043 ± 0.058 | 0.04 ± 0.088 | -0.001 ± 0.052 | 0.0065 ± 0.016 | 0.001 ± 0.033 | 0.081 ± 0.024 | 0.0865 ± 0.032 | 0.0005 ± 0.0064 | 0.0095 ± 0.00071 | 0.004 | -0.0095 ± 0.0092
11 | 4H:CD62P/P-selectin | -0.0135 ± 0.037 | -0.045 ± 0.011 | -0.109 | 0.001 ± 0.017 | -0.011 ± 0.0042 | -0.0005 ± 0.015 | 0.0195 ± 0.012 | 0.043 ± 0.088 | 0.0515 ± 0.036 | -0.045 ± 0.075 | -0.0285 ± 0.059 | 0.005 ± 0.073 | -0.0165 ± 0.022 | -0.217 ± 0.06 | -0.029 ± 0.052 | -0.07 ± 0.083 | -0.169 | -0.0615 ± 0.0064
12 | LPS:CD40 | -0.001 ± 0.05 | -0.0785 ± 0.029 | -0.181 ± 0.064 | -0.016 ± 0.0028 | -0.0185 ± 0.0092 | -0.007 ± 0.014 | 0.024 ± 0.025 | 0.0265 ± 0.088 | -0.117 ± 0.093 | 0.0175 ± 0.079 | 0.0505 ± 0.043 | 0.032 ± 0.071 | -0.0285 ± 0.073 | -0.16 ± 0.03 | -0.0225 ± 0.015 | -0.0585 ± 0.037 | -0.095 | -0.068 ± 0.014
13 | BT:sIL-17A | -0.174 ± 0.019 | -0.509 ± 0.17 | -1.28 ± 0.4 | -0.0215 ± 0.084 | -0.0995 ± 0.00071 | -0.074 ± 0.021 | -0.168 ± 0.2 | -0.0675 ± 0.037 | -0.282 ± 0.23 | -0.127 ± 0.005 | -0.078 ± 0.2 | -0.116 ± 0.096 | -0.177 ± 0.11 | -0.642 ± 0.061 | -0.0865 ± 0.012 | -0.208 ± 0.24 | -0.729 | -0.034 ± 0.12
14 | 4H:CCL2/MCP-1 | -0.0255 ± 0.0064 | -0.0105 ± 0.028 | 0.0245 ± 0.019 | -0.037 ± 0.021 | -0.04 ± 0.028 | -0.0055 ± 0.086 | -0.01 ± 0.0057 | -0.026 ± 0.0085 | -0.0475 ± 0.039 | 0.014 ± 0.0014 | -0.0085 ± 0.028 | 0.019 ± 0.0071 | -0.058 ± 0.023 | -0.168 ± 0.025 | -0.0685 ± 0.0064 | -0.105 ± 0.018 | -0.092 | -0.012 ± 0.014
15 | 3C:CXCL9/MIG | 0.009 ± 0.0028 | 0.0005 ± 0.011 | -0.0055 ± 0.005 | 0.0025 ± 0.015 | -0.0145 ± 0.012 | 0.0035 ± 0.028 | -0.006 ± 0.02 | 0.002 ± 0.0099 | 0.0285 ± 0.013 | -0.0005 ± 0.005 | 0.005 ± 0.011 | 0.001 ± 0.014 | -0.005 ± 0.013 | -0.014 ± 0.0085 | -0.0145 ± 0.011 | -0.016 ± 0.0071 | -0.007 | -0.015 ± 0.0071
16 | BE3C:CXCL9/MIG | 0.008 ± 0.0028 | 0.0055 ± 0.0078 | 0.0035 ± 0.0021 | 0.005 ± 0.0071 | 0 ± 0.0085 | 0.0075 ± 0.0092 | 0.008 ± 0.011 | -0.003 ± 0.0042 | -0.003 ± 0.0028 | -0.003 ± 0.0057 | -0.005 ± 0.0099 | 0.0095 ± 0.012 | -0.0045 ± 0.015 | 0.002 ± 0.0071 | -0.0105 ± 0.0021 | -0.0495 ± 0.0021 | -0.53 | -0.0095 ± 0.00071
